# Assays:
# [1] = biological target: T1, full-length recombinant rat vitamin D receptor (Rattus norvegicus, UniProt P13053); assay: Vitamin D receptor binding, competition with [3H]-1,25-(OH)2-D3; settings: FIG. 1
# T1 construct: Full-length recombinant rat receptor was expressed in E. coli BL21(DE3) Codon Plus RIL cells; His tag (C); made in house; host or cells: E. coli BL21(DE3) Codon Plus RIL
# T1 sequence (P13053 1-423): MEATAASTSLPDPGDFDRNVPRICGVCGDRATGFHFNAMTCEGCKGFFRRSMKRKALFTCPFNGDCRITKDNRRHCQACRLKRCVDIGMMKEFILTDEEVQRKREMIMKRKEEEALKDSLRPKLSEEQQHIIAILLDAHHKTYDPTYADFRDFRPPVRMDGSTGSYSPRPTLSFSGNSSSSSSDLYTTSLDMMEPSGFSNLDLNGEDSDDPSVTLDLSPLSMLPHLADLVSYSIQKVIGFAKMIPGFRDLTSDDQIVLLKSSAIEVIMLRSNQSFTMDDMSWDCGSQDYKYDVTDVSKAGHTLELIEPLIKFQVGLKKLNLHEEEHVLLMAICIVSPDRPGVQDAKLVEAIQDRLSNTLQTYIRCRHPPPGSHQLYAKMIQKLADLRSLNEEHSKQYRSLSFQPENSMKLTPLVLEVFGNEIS
# From the text: FIG. 1 is a graph comparing the relative activity of NP9 and 1,25(OH)2D3 to compete for binding with [^3H]-1,25-(OH)2-D3 to the full-length recombinant rat vitamin D receptor.
# Full-length recombinant rat receptor was expressed in E. coli BL21(DE3) Codon Plus RIL cells and purified to homogeneity using two different column chromatography systems. The first system was a nickel affinity resin that utilizes the C-terminal histidine tag on this protein. The protein that eluted from this resin was further purified using ion exchange chromatography (S-Sepharose Fast Flow). Aliquots of the purified protein were quick frozen in liquid nitrogen and stored at −80° C. until use. For use in binding assays, the protein was diluted in TEDK50 (50 mM Tris, 1.5 mM EDTA, pH 7.4, 5 mM DTT, 150 mM KCl) with 0.1% Chaps detergent. […]
# Unlabeled ligands were dissolved in ethanol and the concentrations were determined using UV spectrophotometry (1,25(OH)2D3: molar extinction coefficient=18,200 and λmax=265 nm). […]
# Radiolabeled and unlabeled ligands were added to 100 mcl of the diluted protein at a final ethanol concentration of ≧10%, mixed and incubated overnight on ice to reach binding equilibrium. […] Total binding was determined from the tubes containing only radiolabeled ligand.
# [2] = system: Human promyelocytic leukemia (HL60) cells; assay: HL-60 differentiation (nitro blue tetrazolium reduction); type: cell-based; settings: FIG. 2
# Protocol: FIG. 2 is a graph comparing the percent HL-60 cell differentiation as a function of the concentration of NP9 with that of 1,25(OH)2D3.
# The study drugs were dissolved in ethanol and the concentrations determined using UV spectrophotometry. Serial dilutions were prepared so that a range of drug concentrations was tested without changing the final concentration of ethanol (≦0.2%) present in the cell cultures.
# Human promyelocytic leukemia (HL60) cells were grown in RPMI-1640 medium containing 10% fetal bovine serum. The cells were incubated at 37° C. in the presence of 5% CO2.
# HL60 cells were plated at 1.2×10^5 cells/mL. Eighteen hours after plating, cells in duplicate were treated with drug. Four days later, the cells were harvested and a nitro blue tetrazolium reduction assay was performed (Collins et al., 1979; J. Exp. Med. 149:969-974). The percentage of differentiated cells was determined by counting a total of 200 cells and recording the number that contain intracellular black-blue formazan deposits. Verification of differentiation to monocytic cells was determined by measuring phagocytic activity.
# [3] = system: 24-hydroxylase (24Ohase) gene promoter; assay: In vitro transcription assay (luciferase reporter in ROS 17/2.8 cells); type: cell-based; settings: 24Ohase promoter-luciferase, FIG. 3
# Protocol: FIG. 3 is a graph comparing the in vitro transcription activity of NP9 with that of 1,25(OH)2D3.
# Transcription activity was measured in ROS 17/2.8 (bone) cells that were stably transfected with a 24-hydroxylase (24Ohase) gene promoter upstream of a luciferase reporter gene (Arbour et al., 1998). Cells were given a range of doses. Sixteen hours after dosing the cells were harvested and luciferase activities were measured using a luminometer. RLU=relative luciferase units.
# Antagonism was tested by adding a combination of 1,25(OH)2D3 and the compound in the same well keeping the final ethanol concentration the same.
# Sprague-Dawley rats [4] = assay: Bone calcium mobilization (serum calcium); type: in vivo, rat; settings: four consecutive ip doses, FIG. 4B
# From the text: (§1) FIGS. 4A and 4B are graphs comparing intestinal calcium transport (4A) and bone calcium mobilization (4B) of NP9 and 1,25(OH)2D3.
# (§2) Male, weanling Sprague-Dawley rats were placed on Diet 11 (Suda et al. J. Nutr. 100:1049, 1970) (0.47% Ca) diet+vitamins AEK for one week followed by Diet 11 (0.02% Ca)+AEK for 3 weeks. The rats were then switched to a diet containing 0.47% Ca for one week followed by two weeks on a diet containing 0.02% Ca. Dose administration began during the last week on 0.02% calcium diet. Four consecutive ip doses were given approximately 24 hours apart. Twenty-four hours after the last dose, blood was collected from the severed neck and the concentration of serum calcium was determined as a measure of bone calcium mobilization. The first 10 cm of the intestine was also collected for intestinal calcium transport analysis using the everted gut sac method. Antagonism was tested by administering a combination of 1,25(OH)2D3 and the compound to the animal simultaneously.
# Sprague-Dawley rats [5] = assay: Intestinal calcium transport (everted gut sac method); type: in vivo, rat; settings: four consecutive ip doses, FIG. 4A
# From the text: as §1, §2
smiles,measurement,setting,value
"CC(C)[C@H]1CC[C@H]2/C(=C/C=C3C[C@@H](O)C[C@H](O)C3)CCC[C@]12C [formula 1B, 19,23,24,25,26,27-Hexanor-1α-hydroxyvitamin D3]","binding to the vitamin D receptor relative to 1,25-(OH)2D3",[1],"does not bind to the vitamin D receptor as strongly as the native hormone 1,25-(OH)2D3"
same,"activity in inducing differentiation of HL-60 cells compared to 1,25-(OH)2D3",[2],"less but still significant activity compared to 1,25-(OH)2D3"
same,"activity in causing transcription compared to 1,25-(OH)2D3",[3],"does not show as much activity in causing transcription as 1,25-(OH)2D3"
same,bone calcium mobilizing activity,Sprague-Dawley rats [4],no measurable bone calcium mobilizing activity
same,intestinal calcium transport activity,Sprague-Dawley rats [5],no measurable
